Reference: patent EP4458977A1, “SELF-ASSEMBLING PEPTIDE AMPHIPHILES AS RETROVIRAL TRANSDUCTION ENHANCERS” (Max-Planck-Gesellschaft zur Förderung der Wissenschaften …, priority 2023, dated 2024)
Where “and” joins values, the source holds several entries; their conditions need not be identical. Equal values may be shown once. Entries after “also recorded” stand apart in the source; their conditions may differ. Read-outs that look alike come from different tables or passages of the source. Where a SMILES comes first, the peptide text is derived from it. The star is where a group is joined. X1 = CC/C=C\C/C=C\C/C=C\C/C=C\C/C=C\CCCC(=O)*; 2‑naphthylmethyl = c1ccc2cc(C*)ccc2c1; Palmitoyl = CCCCCCCCCCCCCCCC(=O)*; Lauroyl = CCCCCCCCCCCC(=O)*; Nonanoyl = CCCCCCCCC(=O)*

Tests used:
[1] = Zeta-potential measurement (dynamic light scattering); assay type: physicochemical
[2] = Fluorescence microscopy of ThT-stained fibrils (µm-sized aggregates); assay type: physicochemical; settings: for fluorescent, µm-sized aggregates (ThT staining): 1 mg/mL stained with 50 µM ThT
In short: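 Fibrils (1 mg mL^-1) mixed 1:9 with 50 µM ThT, giving 0.1 mg mL^-1 stained fibrils on glass. Imaged under 10x air objective with excitation 480/40 nm and emission 527/30 nm. Fibrils called distinct when no visible structures appeared in fluorescence or brightfield.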

HeLa cells = assay: Confocal laser scanning microscopy and degradation study with PA library and HeLa cells; assay type: cell-based; settings: for association with cellular membranes: 2 µg added to 20.000 HeLa cells, 30 min; for degradability (in words) / Degradability / % (rel. to initial particles > 10 µm^2): HeLa cells; for degradability (in words): 3 days; for Degradability / % (rel. to initial particles > 10 µm^2): 3 d relative to 30 min; for aggregate number decreases / degraded in presence of HeLa cells within 3 days: d3 relative to d0
In short: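 HeLa cells (20,000/well) got Proteostat-stained PAs (2 µg peptide per 20.000 cells) with Hoechst nuclear stain, 30 min at 37°C, PBS-washed, then held 3 d at 37°C unwashed. Confocal imaging at d0 and d3 counted aggregates >10 µm^2 in 1008 × 1008 µm, three technical replicates. Degradation taken as d3/d0 aggregate number.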

[3] = Zeta-potential measurement (dynamic light scattering); assay type: physicochemical; settings: for Count Rate / kcps: derived count rate of scattered light during zeta-potential measurements
Experimental: Zeta-potential: 60 µL of the peptides (1 mg mL-1) were diluted in 600 µL, 1 mM KCI solution and placed in a disposable folded capillary cuvette. All zeta-potential measurements were conducted by dynamic light scattering technology (Zetasizer, Malvern Instruments) and in triplicates for each sample. The derived count rate of the zeta potential measurement was used as information on the light scattering intensity and turbidity of the sample as a further indicator for microscopic aggregation.

[4] = ATR-FT-IR determination of β-sheet content; assay type: physicochemical; settings: 1 mg/mL in PBS lyophilized; integral at 1630 cm^-1 relative to 1650-1700 cm^-1
In short: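 From second-derivative spectra, β-sheet amount is the 1630 cm-1 integral over the 1650-1700 cm-1 (native) region. Spectra were taken on solid, lyophilized fibrils via diamond-crystal ATR, averaging 64 scans at 2 cm^-1 resolution.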

HIV-1 = settings: for Infectivity enhancing N fold at 1.3 µM: relative to virus only; for enhancement of HIV-1 infection / transduction (in words): 6.5 µM, 1.3 µM, 0.26 µM;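 for all read-outs here: TZM-bl reporter cells exposed to HIV-1 with peptide fibrils, infection read out as β-galactosidase luminescence, compared with virus alone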
Experimental: HIV-1 Infection Assay with TZM-bl cells: The effect of peptide fibrils on HIV-1 infection was studied via a luminescence assay for β-galactosidase, which was reported by TZM-bl cells upon infection. The HIV-1 infection assay was conducted in three technical replicates and repeated in three independent experiments unless stated otherwise.

[5] = Thioflavin T (ThT) fluorescence assay; assay type: physicochemical; settings: relative to PBS control
Experimental: Transmission electron microscopy (TEM) measurements, Thioflavin (ThT), zeta-potential measurements for fibril characterization were prepared and conducted according to prior art procedures. […] Fibrils were defined as distinct, if no visible structures could be identified in fluorescence and brightfield microscopy. A peptide fibril was considered as ThT-active if the fluorescence intensity was at least twice as strong compared to the control (PBS containing 10% DMSO).

[6] = TEM of peptide assemblies (fibril formation / assembly); assay type: physicochemical; design: key to Fibril Formation: "1" means fibril formation observed; "0" means no fibrils observed; settings: for TEM morphology (in words): 1 mg/mL in PBS; for Assembly without hydrophob residue: corresponding peptide without hydrophobic moiety; for Assembly: peptide amphiphile; for Fibril Formation: via TEM, hydrophobic moiety exchange
In short: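 Peptides predissolved in DMSO at 10 mg/mL (stock), diluted in PBS to 650 µM or 1 mg/mL final and incubated 1 d at rt (20–25 °C) to form fibrils. Other concentrations obtained by diluting preformed fibrils; assemblies imaged by TEM.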

| Molecule | Zeta-Potential / mV [1] | formation of µm-sized aggregates in aqueous medium / PBS (in words) [2] | fluorescent, µm-sized aggregates (ThT staining) [2] | association with cellular membranes (HeLa cells) | degradability (in words) (HeLa cells) | Degradability / % (rel. to initial particles > 10 µm^2) (HeLa cells) | aggregate number decreases / degraded in presence of HeLa cells within 3 days (HeLa cells) | zeta-potential (in words) [3] | Count Rate / kcps [3] | β-sheet amount [4] | enhances infectivity at 1.3 µM concentration, times more efficient compared to virus only infection (HIV-1) | Infectivity enhancing N fold at 1.3 µM (HIV-1) | N-fold ThT-fluorescence [5] | TEM morphology (in words) [6] | Assembly without hydrophob residue [6] | Assembly [6] | Fibril Formation [6] | infectivity enhancement at 1.3 µM concentration compared to virus only infection (in words) (HIV-1) | enhancement of HIV-1 infection / transduction (in words) (HIV-1) | enhancement of HIV-1 infection / transduction (in words) (HIV-1; listed as peptide amphiphile with eicosapentaenoic acid (EPA)) |
| --- | --- | --- | --- | --- | --- | --- | --- | --- | --- | --- | --- | --- | --- | --- | --- | --- | --- | --- | --- | --- |
| CCCCCCCCCCCC(=O)N[C@H](C(=O)N[C@H](C(=O)N[C@H](C(=O)N[C@@H](C)C(=O)N[C@@H](C)C(=O)N[C@@H](C)C(=O)N[C@@H](CCCCN)C(=O)N[C@@H](CCCCN)C(=O)N[C@@H](CCCCN)C(N)=O)C(C)C)C(C)C)C(C)C [Pat7] (Lauroyl-VVVAAAKKK-NH2) | 19.4 mV | form µm-sized aggregates | fluorescent, µm-sized aggregates | association with cellular membranes | non-degradable PA | -32% | 32% | positive zeta-potential | 3558.1 kcps | 49% | 6 times | 6±1 N fold | 185.7 | able to form fibrils; also recorded: fibrillar morphologies | No | Yes | 1 | – | – | – |
| CCCCCCCCC(=O)N[C@H](C(=O)N[C@H](C(=O)N[C@H](C(=O)N[C@@H](C)C(=O)N[C@@H](C)C(=O)N[C@@H](C)C(=O)N[C@@H](CCCCN)C(=O)N[C@@H](CCCCN)C(=O)N[C@@H](CCCCN)C(N)=O)C(C)C)C(C)C)C(C)C [Pat8] (Nonanoyl-VVVAAAKKK-NH2) | 13.5 mV | failed to form µm-sized aggregates in aqueous medium | fluorescent, µm-sized aggregates | association with cellular membranes | non-degradable PA | 78% | 78% | – | 77.2 kcps | 49% | – | 2±0 N fold | 37.1 | formed fibrils in aqueous medium; also recorded: fibrillar morphologies | No | Yes | 1 | does not enhance infectivity | – | – |
| CC/C=C\C/C=C\C/C=C\C/C=C\C/C=C\CCCC(=O)N[C@H](C(=O)N[C@H](C(=O)N[C@H](C(=O)N[C@@H](C)C(=O)N[C@@H](C)C(=O)N[C@@H](C)C(=O)N[C@@H](CCCCN)C(=O)N[C@@H](CCCCN)C(=O)N[C@@H](CCCCN)C(N)=O)C(C)C)C(C)C)C(C)C [Pat10] (X1-VVVAAAKKK-NH2) | 16.9 mV | form µm-sized aggregates | fluorescent, µm-sized aggregates | association with cellular membranes | degradable PA | 99% | 99% | positive zeta-potential | 6069.8 kcps | 51% | 12 times | 12±1 N fold | 61.9 | able to form fibrils; also recorded: condensed spherical structures composed of fibrils | No | Yes | 1 | – | showed infectivity enhancement | even stronger infectivity enhancement than the reference compounds EF-C or PA1 |
| CCCCCCCCCCCCCCCC(=O)N[C@@H](CC(C)C)C(=O)N[C@@H](CC(N)=O)C(=O)NCC(=O)NCC(=O)N[C@H](C(=O)N[C@@H](CCCCN)C(=O)N[C@@H](CCCCN)C(N)=O)C(C)C [Pat19, C16-LNGGVKK-NH2] (Palmitoyl-LNGGVKK-NH2) | 19.4 mV | – | fluorescent, µm-sized aggregates | association with cellular membranes | degradable PA | 48% | 48% | – | – | 34% | 6 times | 6 N fold and 6±1 N fold | – | fibrillar morphologies | No | Yes | – | – | – | – |
| CCCCCCCCCCCCCCCC(=O)N[C@@H](C)C(=O)N[C@@H](CC(C)C)C(=O)N[C@@H](C)C(=O)N[C@@H](C)C(=O)NCC(=O)N[C@@H](CCCCN)C(=O)N[C@@H](CCCCN)C(N)=O [Pat20, C16-ALAAGKK-NH2] (Palmitoyl-ALAAGKK-NH2) | 20.2 mV | – | fluorescent, µm-sized aggregates | association with cellular membranes | degradable PA | 87% | 87% | – | – | 48% | 5 times | 5±1 N fold | – | fibrillar morphologies | No | Yes | – | – | – | – |
| CCCCCCCCCCCCCCCC(=O)N[C@@H](CC(C)C)C(=O)N[C@@H](CC(C)C)C(=O)N[C@@H](CC(C)C)C(=O)N[C@@H](CCCCN)C(=O)N[C@@H](CCCCN)C(N)=O [Pat23, C16-LLLKK-NH2] (Palmitoyl-LLLKK-NH2) | 20.9 mV | – | fluorescent, µm-sized aggregates | association with cellular membranes | moderately degradable PA | 27% | 27% | – | – | 46% | 3 times | 3±0 N fold | – | fibrillar morphologies | No | Yes | – | – | – | – |
| CCCCCCCCCCCCCCCC(=O)N[C@@H](C)C(=O)N[C@@H](CCCCN)C(=O)N[C@@H](C)C(=O)N[C@H](C(=O)NCC(=O)N[C@@H](CCCCN)C(N)=O)C(C)C [Pat31, C16-AKAVGK-NH2] (Palmitoyl-AKAVGK-NH2) | 19.7 mV | – | fluorescent, µm-sized aggregates | association with cellular membranes | degradable PA | 89% | 89% | – | – | 43% | 6 times | 6 N fold and 6±3 N fold | – | fibrillar morphologies | No | Yes | – | – | – | – |
| Nap-VVVAAAKKK-NH2 ({2‑naphthylmethyl}-VVVAAAKKK-NH2; SMILES CC(C)[C@H](NCc1ccc2ccccc2c1)C(=O)N[C@H](C(=O)N[C@H](C(=O)N[C@@H](C)C(=O)N[C@@H](C)C(=O)N[C@@H](C)C(=O)N[C@@H](CCCCN)C(=O)N[C@@H](CCCCN)C(=O)N[C@@H](CCCCN)C(N)=O)C(C)C)C(C)C) [Pat13] | 1.2 mV | failed to form µm-sized aggregates in aqueous medium | – | – | – | – | – | almost neutral zeta-potential | 9.3 kcps | 46% | – | 1±1 N fold | 1.3 | formed fibrils in aqueous medium | No | Yes | 1 | does not enhance infectivity | – | – |
